According to US9266820B2, “Nitric oxide donor compounds” (NICOX S.A., priority 2007, dated 2016):
Structures can show the parent of a compound that is named as a salt.

Test system: isolated rabbit thoracic aorta preparations
Test: vasorelaxant activity in isolated rabbit thoracic aorta preparations precontracted with noradrenaline
Type: cell-based
Conditions: Oryctolagus cuniculus, read-out: IC50 (μM) ± sem
Procedure: The ability of the compounds of the present invention to release nitric oxide was assessed testing their vasorelaxant activity in isolated rabbit thoracic aorta preparations (Wanstall J. C. et al., Br. J. Pharmacol., 134:463-472, 2001).
Male New Zealand rabbits were anaesthetized with thiopental-Na (50 mg/kg, iv), sacrificed by exsanguinations and then the thorax was opened and the aorta dissected. Single ring preparations (4 mm in length) of thoracic aorta were set up in physiological salt solution (PSS) at 37° C. in small organ chambers (5 ml). The composition of PSS was (mM): NaCl 130, NaHCO3 14.9, KH2PO4 1.2, MgSO4 1.2, HEPES 10, CaCl2, ascorbic acid […] and glucose 1.1 (95%)2/5% CO2; pH 7.4). Each ring was mounted under 2 g passive tension in 5 ml organ bath. Isometric tension was recorded with a Grass transducer (Grass FT03) attached to a BIOPAC MP150 System. Preparations were allowed to equilibrate for 1 h, then contracted submaximally with noradrenaline (NA, 1 μM) and, when the contraction was stable, acetylcholine (ACh, 10 μM) was added. A relaxant response to ACh indicated the presence of a functional endothelium. When a stable precontraction was reached, a cumulative concentration-response curve to either of the vasorelaxant agents was obtained in the presence of a functional endothelium. Time intervals between different concentrations were based on the time needed to reach a full response.
Moreover, the nitric oxide-dependent vascular relaxation elicited by the tested compounds was examined preincubating the aortic rings with the soluble guanylyl cyclase inhibitor ODQ (1H-(1,2,4)-oxadiazol(4,3-a)quinoxalin-1-one) at 10 μM for 20 min. Responses to vasorelaxing agents were measured from the plateau of NA contraction. The IC50 (concentration giving 50% reversal of NA contraction) was interpolated from the plots of relaxant-response vs log molar concentration of tested compound.
During the experimental period, the plateau obtained with NA was stable without significant spontaneous loss of contraction in the aortic rings.

Structure (SMILES) | IC50
NC(COC(=O)OCCCCO[N+](=O)[O-])C(=O)O (stereo not drawn) [Compound 407, 2-amino-3-((4-(nitrooxy)butoxy)carbonyloxy)propanoic acid hydrochloride] | 16 ± 6.4 µM
CC(C)(C)OC(=O)N[C@@H](Cc1ccccc1)C(=O)OCCCC[C@H](CO[N+](=O)[O-])O[N+](=O)[O-] [Compound 123] | 0.64 ± 0.14 µM

Same assay, conditions: Oryctolagus cuniculus; concentration giving 50% reversal of NA (1 μM) contraction; aortic rings with functional endothelium; read-out: IC50 (μM) ± sem

Structure (SMILES) | IC50
CC(C)(C)OC(=O)NC(CCc1ccccc1)C(=O)OCCOCCO[N+](=O)[O-] (stereo not drawn) [Example 21, 2-(2-(Nitrooxy)ethoxy)ethyl 2-(tert-butoxycarbonylamino)-4-phenylbutanoate] | 8 ± 1.8 µM
CC(C)(C)OC(=O)NC(CCc1ccccc1)C(=O)OCc1ccc(CO[N+](=O)[O-])cc1 (stereo not drawn) [Compound 13, 4-[(Nitrooxy)methyl]benzyl 2-(tert-butoxycarbonylamino)-4-phenylbutanoate] | 10.2 ± 0.5 µM
CC(C)(C)OC(=O)NCC(=O)NCCCCO[N+](=O)[O-] [Compound 12, tert-butyl 2-(4-(nitrooxy)butylamino)-2-oxoethylcarbamate] | 10.2 ± 4.2 µM
CC(C)(C)OC(=O)N1CCCC1C(=O)OCCCO[N+](=O)[O-] (stereo not drawn) [Example 15, 1-tert-butyl 2-(3-(nitrooxy)propyl)pyrrolidine-1,2-dicarboxylate] | 1.2 ± 0.33 µM
CC(C)(C)OC(=O)N[C@@H](Cc1ccccc1)C(=O)OCCCCO[N+](=O)[O-] [Compound 15, (S)-4-(nitrooxy)butyl 2-(tert-butoxycarbonylamino)-3-phenylpropanoate] | 12.6 ± 6.4 µM
CC(C)(C)OC(=O)N[C@H](COC(=O)CCCO[N+](=O)[O-])Cc1ccccc1 [Compound 511, (S)-2-(tert-butoxycarbonylamino)-3-phenylpropyl 4-(nitrooxy)butanoate] | 9.5 ± 3.6 µM
CC(C)(C)OC(=O)N1CCCC1C(=O)OCc1ccc(CO[N+](=O)[O-])cc1 (stereo not drawn) [Compound 7, 1-tert-Butyl 2-(4-(nitrooxymethyl)benzyl)pyrrolidine-1,2-dicarboxylate] | 2.4 ± 0.5 µM
CC(C)(C)OC(=O)NC(CCc1ccccc1)C(=O)Oc1cccc(CO[N+](=O)[O-])c1 (stereo not drawn) [Compound 86, 3-[(Nitrooxy)methyl]phenyl 2-(tert-butoxycarbonylamino)-4-phenylbutanoate] | 5.2 ± 0.9 µM
CC(C)(C)OC(=O)NCC(=O)OCc1ccc(CO[N+](=O)[O-])cc1 [Compound 87, 4-[(nitrooxy)methyl]benzyl 2-(tert-butoxycarbonylamino)acetate] | 2.1 ± 0.4 µM
CC(C)(C)OC(=O)N1CCCC1C(=O)OCCCCO[N+](=O)[O-] (stereo not drawn) [Example 14, 1-tert-butyl 2-(4-(nitrooxy)butyl)pyrrolidine-1,2-dicarboxylate] | 1.9 ± 0.4 µM
CC(C)(C)OC(=O)NCCOC(=O)CCCO[N+](=O)[O-] [Compound 508, 2-(tert-butoxycarbonylamino)ethyl 4-(nitrooxy)butanoate] | 4.4 ± 0.7 µM

Same assay, conditions: concentration giving 50% reversal of NA (1 μM) contraction; aortic rings with functional endothelium; read-out: IC50 (μM) ± sem

Structure (SMILES) | IC50
CC(C)(C)OC(=O)N1CCCC1C(=O)Oc1cccc(CO[N+](=O)[O-])c1 (stereo not drawn) [Compound 8] | 2.6 ± 0.6 µM
CC(C)(C)OC(=O)N1CCCC1C(=O)OCCOCCO[N+](=O)[O-] (stereo not drawn) [Compound 9] | 4.5 ± 1.4 µM
